Experimental data as given in US20250270648A1, “MOLECULAR SIGNATURE FOR ASSESSING THE RESPONSIVENESS OF CANCER TO MITOCHONDRIA-TARGETED ANTIOXIDANTS” (UNIVERSITÉ CATHOLIQUE DE LOUVAIN, priority 2021, published 2025).

Assays:
[1] = tested on: MDA-MB-231 human breast cancer cells; test: Mitochondrial potential, JC-10; type: cell-based; conditions: 48 h
Protocol: (§1) The mitochondrial potential (ΔΨ) was measured using JC-10 Mitochondrial Membrane Potential Assay Kit (Abcam®, #ab112134), according to manufacturer's recommendations. Briefly, MDA-MB-231 (10^4 cells/well), SkBr3 (10^4 cells/well), MDA-MB-436 (10^4 cells/well) or MCF10A (10^5 cells/well) cells were seeded in 96-well plates and treated for 48 h±MitoQ. Cells were then washed twice and incubated with JC-10 (1× solution) for 45 min. Fluorescence intensities were measured at 490/525 nm and […] using a SpectraMax i3 spectrophotometer equipped with a MiniMax imaging cytometer (Molecular Devices®).

[2] = tested on: SkBr3 human breast cancer cells; test: Mitochondrial potential, JC-10; type: cell-based; conditions: indicated doses of MitoQ, 48 h
Protocol: as §1

[3] = tested on: MDA-MB-231 cells; test: Intracellular ATP, CellTiter-Glo; type: cell-based, human; conditions: MitoQ 100 nM, 48 h
Protocol: Intracellular ATP levels were measured after 48 h of treatment ±MitoQ, using the CellTiter-Glo Luminescent Viability Assay (Promega®) on a Glomax 96 microplate luminometer (Promega®) following manufacturer's instructions. Results were normalized to cell number.

[4] = tested on: MDA-MB-231 and SkBr3 cells; test: RNA sequencing, transcripts common to both cell lines; type: cell-based, human; conditions: MitoQ 500 nM, 48 h
Protocol: MDA-MB-231 and SkBr3 cancer cells were treated ±MitoQ for 48 h. Total mRNA was then extracted using the NucleoSpin RNA kit (Macherey-Nagel®), including DNAse treatment in the intermediary steps. mRNAs were quantified using the Qubit BR dsRNA assay kit (Thermo Fisher Scientific®), and mRNA integrity was evaluated on the Agilent 2100 Bioanalyzer using the RNA 6000 nano kit (Agilent®). All samples had RNA integrity number values ≥7.5. Libraries from control and treated samples were prepared starting from 150 ng of total mRNA using the KAPA RNA HyperPrep Kit with RiboErase (HMR) kit (KAPA Biosystems®) following the manufacturer's recommendations (KR1351—v1.16). Libraries were equimolarly pooled and sequenced on a single lane of an Illumina® NovaSeq 6000 platform. All libraries were sequenced at a depth of >50 million paired-end reads (2×100 bp reads) per sample. All sequencing data were analyzed using the Automated Reproducible MOdular workflow for preprocessing and differential analysis of RNAseq data (ARMOR) pipeline. In this pipeline, reads underwent a quality check using FastQC. Quantification and quality control results were summarized in a MultiQC report before being mapped using Salmon to the transcriptome index that was built using all Ensembl cDNA sequences obtained in the Homo_sapiens.GRCh38.cdna.all.fa file. Then, estimated transcript abundances from Salmon were imported into R using the tximeta package, and analyzed for differential gene expression with edgeR. To get a robust signature, only genes with |log 2 Fold Change|>1 and P<0.01 were retained.
While EMT and sternness markers are usual suspects when testing antimetastatic strategies, it was decided to go deeper in the understanding of the molecular effects of MitoQ, and performed unbiased RNA sequencing (RNAseq) using cells treated for 48 h±MitoQ (500 nM). […] On independent samples upon the same conditions (including |log 2 Fold Change|>1 and P<0.01), RT-qPCR on the two cell lines validated all genes as potential biomarkers of human breast cancer cell response to MitoQ, to the exception of EID1, PEG10, FTH1 and NUPR1 (FIG. 12A-M and Table 7).

[5] = tested on: human MCF7 breast cancer cells; test: Cell viability, CellTiter-Glo; type: cell-based; conditions: increasing doses of DXR ±100 nM MitoQ, 48 h
Protocol: Cells were plated in 96-well plates and left to adhere for 16 hours. In order to avoid reaching full confluence at the endpoint, starting cell count was defined according to doubling time and the duration of the experiment. Following adhesion, cells were treated with the indicated compounds for 48 h, after which staining was done with a CellTiter-Glo Luminescent Cell Viability assay (Promega®, catalogue #G7570), according to supplier's instructions. This method is based on the quantification of intracellular ATP levels.

[6] = tested on: 4T1 cells; test: Migration towards 0.5% serum, chemotaxis chamber; type: cell-based, mouse
Protocol: Previous to migration and invasion assays, cells were pretreated with the indicated amounts of drugs for 16 h, and left to recover for 6 h in full culture medium. Migration assays were performed in a NeuroProbe® standard 48-well chemotaxis chamber according to manufacturer's instructions. Briefly, the bottom chamber was filled with DMEM containing 0.5% serum as a chemo-attractant. Fifty thousand cells were seeded in the upper chamber in the same medium but without serum ±MitoQ where indicated, and allowed to migrate overnight through an 8-μm pore-size polycarbonate membrane. A similar stimulation protocol was used for invasion assays, with the difference of using Matrigel-coated transwells (Corning®). With MCF7 cells, membranes were previously incubated for 30 min with a solution of Vitronectin 10 μg/ml (Sigma-Aldrich®, #SRP3186). Migrated/invaded cells were fixed and stained with 100 μl of a 0.23% crystal violet solution (Sigma-Aldrich®, #C0775) for 10 min before counting on a SpectraMax™ i3 spectrophotometer equipped with a MiniMax imaging cytometer, using the SoftMax Pro software. Data were normalized to vehicle-treated cells (control).

[7] = |log 2 fold change|>1 and P<0.01

SMILES: COC1=C(OC)C(=O)C(CCCCCCCCCC[P+](c2ccccc2)(c2ccccc2)c2ccccc2)=C(C)C1=O [MitoQ]
- mitochondrial potential (Δψ) ([1]; MitoQ 100 nM): decreased
- Δψ, dose dependence ([1]; indicated doses of MitoQ): dose-dependent decreases
- Δψ, dose dependence [2]: dose-dependent decreases
- ATP production [3]: overall decrease
- EID1 and PEG10 gene transcripts ([4]; RNAseq, both cell lines): downregulated
- PHGDH-1, SLC7A11, SERPINE1, FTH1, TXNRD1, PSAT1, PCK2, G6PD, ASNS, SLC6A9 and NUPR1 gene transcripts ([4]; RNAseq, both cell lines): upregulated
- number of commonly induced transcripts [4, 7]: 11
- number of commonly repressed transcripts [4, 7]: 2
- DXR-induced cell killing [5]: did not interfere
- DXR-stimulated cell migration ([6]; 0.1 μg/mL DXR + 100 nM MitoQ): inhibited
- breast cancer cell migration in the presence of cisplatin ([6]; indicated doses of cisplatin + 100 nM MitoQ): repressed
